Data as given in patent US7323468B2, “Pyridopyrazines and the use thereof as kinase inhibitors” (AEterna Zentaris GmbH, priority 2003, dated 2008).

Test system: Raf-Mek-Erk cascade (GST-c-Raf-DD, GST-Mek1, His-Erk2)
Experiment: Raf-Mek-Erk ELISA (cell-free reconstituted cascade, Erk phosphorylation)
Type: biochemical, human
Details: inhibition of Erk phosphorylation, 1 mM ATP, 10 concentrations 31.6 pM-100 μM
Procedure: The inhibitory effect on the following human serine/threonine and tyrosine kinases of the compounds of the invention was tested in conventional kinase assays: PKB/Akt1, c-Raf, B-Raf, Mek, PDGFRbeta, Flt-3, c-Kit, c-Ab1, KDR, FGFR1 and IGF1R. Both the full-length kinases and truncated fragments—but at least the cytoplasmic, constitutively active kinase domains—were employed. The kinases were prepared as recombinant fusion proteins with GST (glutathion S-transferase) or HIS Tag in Sf9 cell culture. Depending on the substrate type, the various kinase reactions were carried out in sandwich ELISA formates or by means of a simple substrate adsorption assay on 96-well Flashplates (Perkin Elmer).
The testing on substances on the Raf-Mek-Erk cascade is described in detail below. Selected test results for the Raf and Mek inhibitors are then listed.
Procedure: Raf-Mek-Erk ELISA
Potential inhibitors were firstly investigated at a concentration of 20 μg/ml in initial single-dose determinations on 96-well microtiter plates (MTPs). Substances with >70% inhibition were employed for dose-response studies.
Reconstitution of the Raf-Mek-Erk cascade was quantified with the aid of a cell-free ELISA.
A typical kinase assay was carried out in a final volume of 50 μl with in each case 20-150 ng of Raf, Mek, Erk kinase protein, 1 mM ATP, 10 mM MgCl2, 150 mM NaCl, 25 mM beta-glycerophosphate, 25 mM Hepes pH 7.5. Before the kinase reaction, the test substances were each preincubated singly with each of the three kinase proteins at room temperature for 30 minutes. For the kinase reaction, the kinases preincubated with test substance were combined and incubated at 26° C. for 30 minutes. The reaction was stopped by a final concentration of 2% SDS and 10 minutes at 50° C. in a heating block.
For the immunodetection, the reaction mixtures were transferred to 96-well MTPs coated with anti-Erk Ab(K-23, Santa Cruz Biotechnology, incubated at room temperature for 60 minutes and washed 3× with TBST. Anti-phospho-Erk Ab (#9106, New England Biolabs) 1:500 in 50 μl of TBST/1% BSA, was added and incubated at 4° C. overnight. After the MTPs had been washed 3× with TBST, secondary anti-mouse IgG^POD conjugate (#NA931, Pharmacia) 1:2500 was added, incubated at room temperature for 1 h and again washed 3× with TBST. For colorimetric detection of the kinase reaction, 50 μl of OPD (o-phenyldiamine dihydrochloride) chromogen buffer were pipetted into each of the wells and incubated at 37° C. for 30 minutes. The colour reaction was then determined in an ELISA reader at 492 nm.
The experimental determination of dose-response plots took place using the same experimental design with 10 semilogarithmically graded concentrations from 31.6 pM-100 μM. The IC50 values were calculated in GraphPadPrism.

SMILES	IC50
CC(C)(C)NC(=S)Nc1ccc2ncc(-c3ccccc3)nc2n1 [Example 10, 1-tert-Butyl-3-(3-phenylpyrido[2,3-b]pyrazin-6-yl)thiourea]	> 100 µM
S=C(NCc1ccccc1)Nc1ccc2ncc(-c3ccccc3)nc2n1 [Example 13, 1-Benzyl-3-(3-phenylpyrido[2,3-b]pyrazin-6-yl)thiourea]	> 100 µM
O=[N+]([O-])c1ccc(NC(=S)Nc2ccc3ncc(-c4ccc5ccccc5c4)nc3n2)cc1 [Example 8, 1-(3-Naphthalen-2-ylpyrido[2,3-b]pyrazin-6-yl)-3-(4-nitrophenyl)thiourea]	> 100 µM
O=C(Nc1ccc(Cl)c(C(F)(F)F)c1)Nc1ccc2ncc(-c3ccccc3)nc2n1 [Example 16, 1-(4-Chloro-3-trifluoromethylphenyl)-3-(3-phenylpyrido[2,3-b]pyrazin-6-yl)urea]	> 100 µM
Cc1ccc(NC(=O)Nc2ccc3ncc(-c4ccccc4)nc3n2)cc1 [Example 15, 1-(3-Phenylpyrido[2,3-b]pyrazin-6-yl)-3-p-tolylurea]	> 100 µM
COc1ccc(-c2cnc3ccc(NC(=S)Nc4ccc([N+](=O)[O-])cc4)nc3n2)cc1 [Example 9, 1-[3-(4-Methoxyphenyl)pyrido[2,3-b]pyrazin-6-yl]-3-(4-nitrophenyl)thiourea]	> 100 µM

Test system: not given
Experiment: not given
Details: not given

SMILES	melting point
C=C(C)CNC(=S)Nc1ccc2ncc(-c3ccc4ccccc4c3)nc2n1 [Example 6, 1-(2-Methylallyl)-3-(3-naphthalen-2-ylpyrido[2,3-b]pyrazin-6-yl)thiourea]	239 to 240 °C (dec.)
